Reference: patent US20240316015A1, “COMPOSITION AND METHOD FOR TREATING TUMORS” (NATURAL MEDICINE INSTITUTE OF ZHEJIANG YANGSHENGTANG CO., …, priority 2021, published 2024)

What was measured:
[1] = system: MC38; experiment: scratch test of MC38; assay type: cell-based; conditions: concentrations such as 5 μM, 10 μM or 20 μM; FIGS. 3-7
Description: Different concentrations of PDE4 inhibitors, such as 5 μM, 10 μM, or 20 μM, were administered to verify the inhibitory effect on metastasis in the scratch test of MC38.

[2] = system: Lymphoma cells; experiment: subcutaneous tumor model, lymphoma cells; assay type: in vivo, C57 mice; conditions: in combination with anti-PD-L1 antibody; e.g. 4 mg/kg + 2 mg/kg i.p. every 3 days, 6 doses
Description: (§1) (1) Tumorigenesis in mice. 6-8 week-old C57 female mice were selected. Lymphoma cells were cultured in vitro to logarithmic phase, collected, and resuspended in a PBS buffer solution. The collected cells were subcutaneously injected into the leg of mice with 5×10^5 cells per mouse to establish a subcutaneous tumor model. (2) After tumorigenesis, the mice were divided into four experimental groups including a blank control, a PDE4 inhibitor group, an immune checkpoint inhibitor group, and a PDE4 inhibitor+immune checkpoint inhibitor group. The mice in the PDE4 inhibitor+immune checkpoint inhibitor group were sequentially intraperitoneally injected with e.g. 4 mg/kg of PDE4 inhibitor and e.g. 2 mg/kg of immune checkpoint inhibitor (e.g., an PD-L1 antibody) every 3 days, with 6 doses in total, while the PDE4 inhibitor group and the immune checkpoint inhibitor group were separately injected with the same dose of PDE4 inhibitor and immune checkpoint inhibitor in the same manner, and the blank control was injected with the same dose of normal saline. […] The mice were detected for weight and tumor size and recorded: tumor volume (mm^3)=length (L)×width (W)^2/2, and then subject to Luciferin fluorescence imaging of tumor. […] 10 min after injection, the mice were subject to Luciferin fluorescence imaging using a Small Animal Live Imaging System (model: IVIS Lumina XRMS Series III).

[3] = system: MC38 cells; experiment: subcutaneous tumor model, colon cancer cells such as MC38; assay type: in vivo, C57 mice; conditions: e.g. 4 mg/kg + 2 mg/kg i.p. every 3 days, 6 doses
Description: (1) Tumorigenesis in mice. 6-8 week-old C57 female mice were selected. Colon cancer cells, such as MC38 cells, were cultured in vitro to logarithmic phase, collected, and resuspended in a PBS buffer solution. The collected cells were subcutaneously injected into the leg of mice with 5×10^5 cells per mice to establish a subcutaneous tumor model.
(2) After tumorigenesis, the mice were divided into four experimental groups including a blank control, a PDE4 inhibitor group, an immune checkpoint inhibitor group, and a PDE4 inhibitor+immune checkpoint inhibitor group. The mice in the PDE4 inhibitor+immune checkpoint inhibitor group were sequentially intraperitoneally injected with, e.g., 4 mg/kg of PDE4 inhibitor and, e.g., 2 mg/kg of immune checkpoint inhibitor (e.g., a PD-L1 antibody) every 3 days, with 6 doses in total, while the PDE4 inhibitor group and the immune checkpoint inhibitor group were separately injected with the same dose of PDE4 inhibitor and the immune checkpoint inhibitor in the same manner, and the blank control was injected with the same dose of normal saline. The day of the first injection was taken as day 1. The mice were detected for the weight and tumor size and recorded: the tumor volume (mm^3)=length (L)×width (W)^2/2, and then subject to Luciferin fluorescence imaging of tumor. That is, each mouse was intraperitoneally injected with 100 μL of 1 mg/mL aqueous solution of D-Luciferin potassium as formulated. 10 min after injection, the mice were subject to Luciferin fluorescence imaging using a Small Animal Liver Imaging System (model: IVIS Lumina XRMS Series III).
(1) Tumorigenesis in mice. 6-8 week-old C57 female mice were selected. […]

[4] = system: Hematologic tumor cells; experiment: subcutaneous tumor model, hematologic tumor cells; assay type: in vivo, C57 mice; conditions: in combination with anti-PD-L1 antibody; e.g. 4 mg/kg + 2 mg/kg i.p. every 3 days, 6 doses
Description: as §1, with “Hematologic tumor” for “Lymphoma”

[5] = system: Breast cancer cells; experiment: subcutaneous tumor model, breast cancer cells; assay type: in vivo, C57 mice; conditions: e.g. 4 mg/kg + 2 mg/kg i.p. every 3 days, 6 doses
Description: (§2) (1) Tumorigenesis in mice. 6-8 week-old C57 female mice were selected. Breast cancer cells were cultured in vitro to logarithmic phase, collected, and resuspended in a PBS buffer solution. The collected cells were subcutaneously injected into the leg of mice with 5×10^5 cells per mouse to establish a subcutaneous tumor model. (2) After tumorigenesis, the mice were divided into four experimental groups including a blank control, a PDE4 inhibitor group, an immune checkpoint inhibitor group, and a PDE4 inhibitor+immune checkpoint inhibitor group. […] The mice were detected for weight and tumor size and recorded: tumor volume (mm^3)=length (L)×width (W)^2/2, and then subject to Luciferin fluorescence imaging of tumor. […] 10 min after injection, the mice were subject to Luciferin fluorescence imaging using a Small Animal Live Imaging System (model: IVIS Lumina XRMS Series III). […] The mice were detected for weight and tumor size and recorded: tumor volume (mm^3)=length (L)×width (W)^2/2, and then subject to Luciferin fluorescence imaging of tumor. […] 10 min after injection, the mice were subject to Luciferin fluorescence imaging using a Small Animal Live Imaging System (model: IVIS Lumina XRMS Series III).

[6] = system: MC38 cells; experiment: tumor metastasis model, MC38 cells injected into the spleen of mice; assay type: in vivo, C57 mice; conditions: 4 mg/kg intraperitoneally every 3 days, 6 doses; FIGS. 1A and 1B
Description: In use, DMSO was used as the solvent for Oxaliplatin and Roflumilast. (1) Tumorigenesis in mice. 6-8 week-old C57 female mice were selected. MC38 cells were cultured in vitro to logarithmic phase, collected, and resuspended in a PBS buffer solution. The collected cells were injected into the spleen of mice through surgery with 5×10^5 MC38 cells per mouse to establish a tumor metastasis model. […] The day of the first injection was taken as Day 1. Then, the mice were detected for weight and recorded, and subject to Luciferin fluorescence imaging. That is, each mouse was intraperitoneally injected with 100 μL of 1 mg/mL aqueous solution of potassium D-Luciferin as formulated. 10 min after injection, the mice were subject to Luciferin fluorescence imaging using a Small Animal […] Imaging System (model: IVIS Lumina XRMS Series III).

[7] = system: Melanoma cells; experiment: subcutaneous tumor model, melanoma cells; assay type: in vivo, C57 mice; conditions: e.g. 4 mg/kg + 2 mg/kg i.p. every 3 days, 6 doses
Description: as §2, with “Melanoma” for “Breast cancer”

[8] = system: breast tumor cells 4T1; experiment: mouse model of lung metastasis of breast cancer; assay type: in vivo; conditions: 4T1 lung metastasis model; FIG. 8
[9] = in combination with anti-PD-1 antibody
[10] = in combination with anti-PD-L1 antibody

O=C(O)Cc1ccc(Cc2cc(-c3cccc(Cl)c3)nc(C(F)(F)F)c2)cc1 [BPN14770, Benzeneacetic acid, 4-[[2-(3-chlorophenyl)-6-(trifluoromethyl)-4-pyridinyl]methyl]-]
inhibitory effect on metastasis in the scratch test [1]: inhibiting metastasis

OCCN(CCO)c1nc(N2CCCCC2)c2nc(N(CCO)CCO)nc(N3CCCCC3)c2n1 [Dipyridamole]
inhibitory effect on metastasis in the scratch test [1]: inhibiting metastasis

COc1cccc(Nc2c(C(N)=O)cnc3c(C)cc(S(=O)(=O)c4cccc(C(=O)N(C)C)c4)cc23)c1 [GSK256066]
inhibitory effect on metastasis in the scratch test [1]: inhibiting the results of metastasis

O=C(Nc1c(Cl)cncc1Cl)c1ccc(OC(F)F)c(OCC2CC2)c1 [Roflumilast]
inhibitory effect on metastasis in the scratch test [1]: inhibiting metastasis | inhibition of tumor growth [2]: Synergistically Inhibiting Growth of Lymphoma | inhibition of tumor growth ([3]; in combination with anti-CTLA-4 antibody): Synergistically Inhibiting Growth of Colon Cancer | inhibition of tumor growth ([3]; in combination with anti-LAG-3 antibody): Synergistically Inhibiting Growth of Colon Cancer | inhibition of tumor growth [3, 9]: Synergistically Inhibiting Growth of Colon Cancer | inhibition of tumor growth [4]: Synergistically Inhibiting Growth of Hematologic Tumor | inhibition of tumor growth [5, 9]: Synergistically Inhibiting Growth of Breast Cancer | inhibition of tumor growth [5, 10]: Synergistically Inhibiting Growth of Breast Cancer | inhibition of tumor metastasis (Luciferin fluorescence imaging) [6]: Capable of Inhibiting Tumor Metastasis | inhibition of tumor growth [7, 9]: Synergistically Inhibiting Growth of Melanoma | inhibition of tumor growth [7, 10]: Synergistically Inhibiting Growth Of Melanoma | inhibitory effect on tumor metastasis [8]: significant inhibitory effect on tumor metastasis

COc1ccc(C2CNC(=O)C2)cc1OC1CCCC1 (stereo not shown) [Rolipram, 4-(3-cyclopentyloxy-4-methoxyphenyl)pyrrolidin-2-one]
inhibitory effect on metastasis in the scratch test [1]: inhibiting metastasis
